Source: patent US10900091B2, “miR-133a as a marker for colorectal cancer” (The Chinese University of Hong Kong, priority 2019, dated 2021)
“Also recorded” adds a separate entry of the source.

Experiments:
stage IV CRC patients = assay: Response of stage IV CRC patients to oxaliplatin-based first-line treatment (RECIST); assay type: in vivo, human; conditions: 42 stage IV CRC patients, oxaliplatin-based first-line therapy
Source text: A cohort of 42 pairs of tumor and adjacent normal tissue FFPE blocks obtained from stage IV CRC patients who had received oxaliplatin-based treatment as first-line therapy at Prince of Wales Hospital between 2003 and 2010, and with known clinico-oncologic outcomes were identified from the prospectively collected database. Patients were classified into responders and non-responders group according to RECIST guideline (7). Responders are defined as the patients achieving complete response (CR) and partial response (PR), and non-responder group as patients with stable disease (SD) and progressive disease (PD). Overall survival (OS) was calculated from the operation day to the date of death or the last visit with censoring. The progress free survival (PFS) during first-line chemotherapy was determined from the operation day to the first-line progression as documented by either CT scan, positron emission tomography/CT scan, or Carcinoembryonic antigen (CEA). Forty-six mCRC patients received oxaliplatin-based treatment as first-line therapy at Beijing Oncology Hospital were used as a validation cohort (BJ cohort). […]
miR-133a level was next evaluated in 42 pairs paraffin blocks of tumor and adjacent normal tissues from stage IV CRC patients who had received oxaliplatin-based treatment. […]

[1] = tested on: CRC cell lines (HT29, SW1116, HCT116, HCT116p53−/−, RKO, DLD1); assay: MTT cell viability assay: oxaliplatin sensitization after ectopic miR-133a expression; assay type: cell-based, human; conditions: CRC cell lines with ectopic expression of miR-133a; oxaliplatin treatment; FIG. 4
Protocol: (§1) Human miR-133a precursor (PM10413) was purchased from Thermo Fisher Scientific. […] Cells were transfected with miRNAs using Lipofectamine 2000 (Invitrogene). Cells transfected with miRNA were harvested 12 h to 48 h post-transfection.
After 24 h of transfection, cells were collected and seeded (500-1000/well) in a fresh 96-well plate for 5 days. Cell viability was determined using the conversion of 3-(4,5-dimethylthiazol-2-yl)-2,5-diphenyltetrazolium bromide (MTT) to formazan via mitochondrial oxidation. MTT solution was then added to each well at a final concentration of 0.2 mg/ml per well and the plates were incubated at 37° C. for another 1 h. After incubation, 200 μl of dimethyl sulfoxide was added to each well to dissolve the formazan formed and the absorbance was measured at 570 nm using a spectrophotometer. All the experiments were repeated in three independent experiments in triplicate.
To validate the role of miR-133a in oxaliplatin sensitization in vitro, miR-133a was expressed in the microsatellite stable (HT29, SW1116) and microsatellite instable CRC cell lines (HCT116, HCT116^p53−/−, RKO, DLD1), respectively. 50% inhibitory concentration (IC50) of each cell lines was calculated by means of MTT assay. Restoration of miR-133a was sufficient to result in a 1.5 to 2.9 fold sensitization to oxaliplatin treatment in all the tested cell lines (FIG. 4).

human ATP7B 3′-UTR = assay: Dual-luciferase reporter assay, ATP7B 3′UTR; assay type: cell-based
Protocol: (§2) Wild-type or mutanted human ATP7B, ABCC1 and GCLC 3′-UTR were cloned into pMIR-REPORT vector (Thermo Fisher Scientific) at the SacI and SpeI sites, respectively. Co-transfection of reporter plasmids and miRNA in 24-well plates were carried out with lipofectamine 2000 as described by the manufacture. Per well, 195 ng luciferase report plasmid, 5 ng pRL-cytomegalovirus (CMV) vector and 15 pmole miRNA were applied. Cells were harvested 48 h post-transfection and luciferase activities were analyzed by the dual-luciferase reporter assay system (Promega, Madison, Wis.).
(§3) To characterize the chemosensitizing property of miR-133a to oxaliplatin treatment, miR-133a targets that regulated the metabolism of oxaliplatin were searched for. Increased drug efflux and activation of detoxification system are two major aspects that induce Platinum-based drugs resistance (15). Previous studies indicate that ATPase Cu++ transporting beta polypeptide (ATP7B), ATP-binding cassette sub-family C member 1 (ABCC1) and γ-glutamylcysteine liganse (GCLC) regulated Platinum-based drugs efflux and detoxification (16-21). […] Furthermore, their predicted 3′UTR binding sites, as well as their mutant form, were attached to firefly luciferase reporter gene, respectively. miR-133a repressed wild-type ATP7B, ABCC1, and GCLC-3′UTR reporter activity for about 64%, 56% and 42%, respectively (FIG. 5A, P<0.05).

human ABCC1 3′-UTR = assay: Dual-luciferase reporter assay, ABCC1 3′UTR; assay type: cell-based
Protocol: as §2, §3

human GCLC 3′-UTR = assay: Dual-luciferase reporter assay, GCLC 3′UTR; assay type: cell-based
Protocol: as §2, §3

ATP7B = assay: Endogenous ATP7B expression after miR-133a transfection (qPCR, western blot); assay type: cell-based, human
Protocol: as §1
(§4) Protein concentration was measured by the Bradford DC protein assay (Bio-Rad, Hercules, Calif.). 5-20 μg of protein from each sample were separated on 10% Bis-Tris-polyacrylamide gel through electrophoresis and blotted onto nitrocellulose membranes (GE Healthcare, Piscataway, N.J.). Blots were immunostained with primary antibodies at 4° C. overnight and secondary antibody at room temperature for 1 h. Protein was visualized using ECL Plus Western Blotting Detection Reagents (GE Healthcare). Independent experiments were performed at least twice.
(§5) To characterize the chemosensitizing property of miR-133a to oxaliplatin treatment, miR-133a targets that regulated the metabolism of oxaliplatin were searched for. Increased drug efflux and activation of detoxification system are two major aspects that induce Platinum-based drugs resistance (15). Previous studies indicate that ATPase Cu++ transporting beta polypeptide (ATP7B), ATP-binding cassette sub-family C member 1 (ABCC1) and γ-glutamylcysteine liganse (GCLC) regulated Platinum-based drugs efflux and detoxification (16-21). […]

ABCC1 = assay: Endogenous ABCC1 expression after miR-133a transfection (qPCR, western blot); assay type: cell-based, human
Protocol: as §1, §4, §5

GCLC = assay: Endogenous GCLC expression after miR-133a transfection (qPCR, western blot); assay type: cell-based, human
Protocol: as §1, §4, §5

[2] = qPCR, HCT116 and DLD1 (also HEK293)
[3] = western blot, HCT116, DLD1 and HEK293 (293T in the source)

| Molecule | objective response rate (stage IV CRC patients) [%] | IC50 compared with the control group [1] | effect on mutant ATP7B-3′UTR reporter activity (human ATP7B 3′-UTR; mutant 3′UTR) | repression of wild-type ATP7B-3′UTR reporter activity (human ATP7B 3′-UTR; wild-type 3′UTR, P<0.05) | effect on mutant ABCC1-3′UTR reporter activity (human ABCC1 3′-UTR; mutant 3′UTR) | repression of wild-type ABCC1-3′UTR reporter activity (human ABCC1 3′-UTR; wild-type 3′UTR, P<0.05) [%] | effect on mutant GCLC-3′UTR reporter activity (human GCLC 3′-UTR; mutant 3′UTR) | repression of wild-type GCLC-3′UTR reporter activity (human GCLC 3′-UTR; wild-type 3′UTR, P<0.05) [%] | ATP7B mRNA level (ATP7B; [2]) | ATP7B protein level (ATP7B; [3]) | ABCC1 mRNA level (ABCC1; [2]) | ABCC1 protein level (ABCC1; [3]) | GCLC mRNA level (GCLC; [2]) | GCLC protein level (GCLC; [3]) |
| --- | --- | --- | --- | --- | --- | --- | --- | --- | --- | --- | --- | --- | --- | --- |
| O=C1[O][Pt]2([NH][C@@H]3CCCC[C@H]3[NH]2)[O]C1=O [oxaliplatin, Oxaliplatin] | 29 | – | – | – | – | – | – | – | – | – | – | – | – | – |
| hsa-miR-133a-3p (UUUGGUCCCCUUCAACCAGCUG; precursor form, further chemistry not given here; listed as Homo sapiens) [Human miR-133a precursor purchased from Thermo Fisher Scientific, transfected into cells] | – | lower | no inhibition effect | about 64% | no inhibition effect | ~56 | no inhibition effect | ~42 | significantly suppressed; also recorded: remarkably reduced; also recorded: decreased | remarkably reduced; also recorded: decreased | significantly suppressed; also recorded: remarkably reduced; also recorded: decreased | remarkably reduced; also recorded: decreased | significantly suppressed; also recorded: remarkably reduced; also recorded: decreased | remarkably reduced; also recorded: decreased |
